Experimental data: PMC13534789, “Molecular Glue Degraders Enhance CAPRIN1‐Dependent Lysosomal Degradation of APP and Reduce Amyloid β in Alzheimer's Disease” (Advanced Science, 2026)

Tests used:
[1] = biological target: T1, CAPRIN1 and APP (Homo sapiens, UniProt P05067+Q14444); assay: Streptavidin pull-down with biotinylated 0152 in AG27606-N lysates; assay type: binding
T1 construct: endogenous in cells; host or cells: AG27606-Ns, sAD2.3-Ns (iPSC-derived neurons) and their lysates

[2] = test system: LN229 and HCT116 cells; design: method as in PMID 34644148; conditions: cited from earlier work

With `N#Cc1ccc2nc(NC(=O)Nc3cccc(Cl)c3)sc2c1` [HB007, reference compound] as the compound, how does the “Competition of the 0152-biotin pull-down by excess free compound” value [1] read?
Its value is “not by the inactive analog HB007”.

What about the Cancer cell growth [2] of the same compound?
The Cancer cell growth was “inhibits cancer cell growth”.
